Experimental findings from the Kinase Knowledgebase extract (Sharma et al. 2016) are described below.

“And” between values parts separate entries of the source, which are not always exact repeats. Equal entries are not always repeated. Some results are limits rather than exact numbers.

Usually IC50 stands for the midpoint of a concentration-inhibition curve. High values mean lower potency, low ones higher potency. For orientation: inhibition means how much of the control response was suppressed. Read a low inhibition as little suppression.

One assay deals with EGFR (UniProt P00533).
EGFR, sequence (P00533 whole entry, looked up): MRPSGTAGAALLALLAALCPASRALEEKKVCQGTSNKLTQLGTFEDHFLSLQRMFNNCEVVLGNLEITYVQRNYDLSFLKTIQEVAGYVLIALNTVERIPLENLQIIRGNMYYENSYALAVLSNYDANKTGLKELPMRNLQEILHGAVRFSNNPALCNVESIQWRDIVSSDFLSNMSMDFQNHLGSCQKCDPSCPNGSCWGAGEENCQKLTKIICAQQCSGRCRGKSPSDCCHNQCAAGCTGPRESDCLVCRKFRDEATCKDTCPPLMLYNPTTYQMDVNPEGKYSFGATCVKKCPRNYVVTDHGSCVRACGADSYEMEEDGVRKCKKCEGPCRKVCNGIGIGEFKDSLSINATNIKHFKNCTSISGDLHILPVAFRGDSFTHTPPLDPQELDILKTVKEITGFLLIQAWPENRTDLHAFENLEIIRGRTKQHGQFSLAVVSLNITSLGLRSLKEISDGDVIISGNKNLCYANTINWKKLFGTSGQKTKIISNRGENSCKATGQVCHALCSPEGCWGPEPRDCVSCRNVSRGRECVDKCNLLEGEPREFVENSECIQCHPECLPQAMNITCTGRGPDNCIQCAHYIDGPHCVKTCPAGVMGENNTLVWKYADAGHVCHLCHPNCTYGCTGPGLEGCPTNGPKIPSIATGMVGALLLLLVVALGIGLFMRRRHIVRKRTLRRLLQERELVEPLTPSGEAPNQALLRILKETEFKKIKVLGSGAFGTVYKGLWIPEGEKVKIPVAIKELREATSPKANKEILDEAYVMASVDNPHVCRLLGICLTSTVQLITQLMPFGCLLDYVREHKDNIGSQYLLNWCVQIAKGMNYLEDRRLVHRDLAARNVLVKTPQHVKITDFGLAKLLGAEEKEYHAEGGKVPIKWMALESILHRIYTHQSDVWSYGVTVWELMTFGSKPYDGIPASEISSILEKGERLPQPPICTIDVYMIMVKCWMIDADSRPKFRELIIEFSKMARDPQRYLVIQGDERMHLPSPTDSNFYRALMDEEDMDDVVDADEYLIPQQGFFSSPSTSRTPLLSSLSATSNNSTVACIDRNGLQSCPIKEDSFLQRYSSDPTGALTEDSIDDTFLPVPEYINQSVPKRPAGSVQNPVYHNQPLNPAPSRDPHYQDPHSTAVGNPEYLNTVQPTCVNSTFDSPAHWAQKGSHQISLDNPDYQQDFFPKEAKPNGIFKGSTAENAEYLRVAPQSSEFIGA
Assay: not given
Conditions: not given
Take `O=C(c1ccc2cc[nH]c2c1)N1CCC(Cc2ccccc2)CC1`: the IC50 is above 500000 nM.

With `O=C(c1ccc2[nH]ccc2c1)N1CCC(Cc2ccccc2)CC1`, the IC50 is above 500000 nM.

A further assay deals with MAPK14 (UniProt Q16539). The assay can be described thus: p38 alpha Kinase Inhibition Assay.
MAPK14, sequence (Q16539 whole entry, looked up): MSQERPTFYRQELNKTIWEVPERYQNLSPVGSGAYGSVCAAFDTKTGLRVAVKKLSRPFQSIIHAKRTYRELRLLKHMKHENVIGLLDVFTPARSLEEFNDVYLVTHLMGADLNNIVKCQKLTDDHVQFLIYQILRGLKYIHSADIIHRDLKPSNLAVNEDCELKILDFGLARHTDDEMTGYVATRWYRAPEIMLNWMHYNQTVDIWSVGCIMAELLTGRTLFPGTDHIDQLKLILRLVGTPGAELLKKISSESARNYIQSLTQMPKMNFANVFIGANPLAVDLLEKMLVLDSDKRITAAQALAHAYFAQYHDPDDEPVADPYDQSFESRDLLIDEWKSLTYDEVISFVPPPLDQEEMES
Conditions: not given
`O=C(c1ccc2c(ccn2C(=O)c2ccncc2)c1)N1CCC(Cc2ccccc2)CC1` came in with an IC50 of 405 to 871 nM.

As to `O=C(c1ccc2cc[nH]c2c1)N1CCN(Cc2ccccc2)CC1`, the concentration for half-maximal inhibition (IC50) was in the range of 4970 to 5520 nM.

Consider `O=C(c1ccc2ccn(C(=O)c3ccncc3)c2c1)N1CCC(Cc2ccccc2)CC1`, for which the IC50 was 505 nM.

Take `O=C(c1ccc2nc[nH]c2c1)N1C2CCC1CC(Cc1ccccc1)C2` (configuration not stated): the IC50 turned out to be 2150 nM.

Regarding `O=C(c1ccc2[nH]ccc2c1)N1CCC(Cc2ccccc2)CC1`, the IC50 is 150 to 242 nM and 523 to 577 nM.

With `CCNCCCn1ccc2cc(C(=O)N3CCC(Cc4ccccc4)CC3)c(Cl)cc21`, the IC50 was 199 nM.

`O=C(c1ccc2c(ccn2-c2ccncc2)c1)N1CCC(Cc2ccccc2)CC1` returned an IC50 of 800 nM. Against the preceding molecule, the IC50 is about 4-fold higher.

As to `CCNCCCn1ccc2cc(C(=O)N3CCC(Cc4ccc(F)cc4)CC3)ccc21`, the IC50 was determined as 354 nM.

Staying with this assay, now noted: concentration not given here.
`COc1cc2[nH]ccc2cc1C(=O)N1C2CCC1CC(Cc1ccccc1)C2` (configuration not stated) displayed an inhibition of 63%.

`O=C(c1ccc2cc[nH]c2c1)N1CCC(Cc2ccc(F)cc2)C1` (configuration not stated) gave an inhibition of 51%.
